Data as given in article PMC4823954, “From fighting depression to conquering tumors: a novel tricyclic thiazepine compound as a tubulin polymerization inhibitor” (Cell Death & Disease, 2016).

How the values were obtained:
[1] = tested on: H460TaxR; assay: Cell viability assay (sulforhodamine B); type: cell-based, human; conditions: for Resistance Folds: EC50 in H460TaxR cells divided by EC50 in H460 cells; for EC50: Homo sapiens, H460/TaxR
Protocol: (§1) All biological reagents and solvents were obtained from commercial suppliers and used as recommended. The human NSCLC cell line H460 and P-gp-overexpressing drug-resistant cell line H460TaxR were cultured in RPMI-1640 medium supplemented with 10% fetal bovine serum, 100 units/ml penicillin and […] streptomycin. The NHFB cell line NHFB was cultured in DMEM with the same supplements. All cells were maintained in a 37 °C incubator with 95% humidity and 5% CO2.
(§2) The cell viability was determined using the sulforhodamine B assay.[64] In brief, cells (4000 cells in 100 μl medium) were seeded in 96-well culture plates and incubated for 24 h. The cells were treated with the compounds or with an equal volume (0.1%) of DMSO for 72 h. The cell viability was calculated using the following formula: cell viability=Atreatment/Acontrol. The EC50 values were determined using the Sigma Plot 10.0 software package (Systat Software Inc., San Jose, CA, USA).

[2] = tested on: H460; assay: Cell viability assay (sulforhodamine B); type: cell-based, human; conditions: Homo sapiens
Protocol: as §1, §2

[3] = tested on: NHFB; assay: Cell viability assay (sulforhodamine B); type: cell-based; conditions: Fibroblast; NHFB normal human fibroblasts, 72 h
Protocol: as §1, §2

[4] = tested on: H460 xenograft; assay: NSCLC xenograft tumor growth inhibition; type: in vivo; conditions: H460 xenografted mice; PTX 10 mg/kg i.v., four doses every other day
Protocol: (§3) (a) The tumor volume was measured every other day. […] (b) Blood biochemical and hematological analyses.

[5] = tested on: H460TaxR xenograft; assay: NSCLC xenograft tumor growth inhibition; type: in vivo; conditions: H460TaxR xenografted mice; PTX 10 mg/kg i.v., four doses every other day
Protocol: as §3

[6] = toxicity in xenografted mice; conditions: end of experiment, hematoxylin–eosin
[7] = H460TaxR(+Rev), Reversan (P-gp inhibitor)

EC50 [1, 7] | EC50 ([2]; NCI-H460, 72 h, H460 cells, 72 h) | SMILES | Resistance Folds [1] | EC50 ([1]; 72 h, H460TaxR cells) | EC50 ([1]; H460TaxR cells) | EC50 ([2]; NCI-H460, H460 cells) | EC50 [3] | tumor growth inhibition, TGI [4] | tumor growth inhibition, TGI [5] | histopathological examination of the major organs [6]
0.17 ± 0.1 µM | 0.11 ± 0.07 µM | COc1cccc2c1C(=O)c1c(O)c3c(c(O)c1C2=O)C[C@@](O)(C(=O)CO)C[C@@H]3O[C@H]1C[C@H](N)[C@H](O)[C@H](C)O1 [DOX, Doxorubicin] | 18.6 | 2.05 ± 0.69 µM | – | – | – | – | – | –
0.0091 ± 0.0033 µM | – | CC[C@]1(O)C[C@H]2CN(CCc3c([nH]c4ccccc34)[C@@](C(=O)OC)(c3cc4c(cc3OC)N(C=O)[C@H]3[C@@](O)(C(=O)OC)[C@H](OC(C)=O)[C@]5(CC)C=CCN6CC[C@]43[C@@H]65)C2)C1 [VCR, Vincristine] | 78.4 | – | 1.01 ± 0.101 µM | 0.0129 ± 0.0052 µM | – | – | – | –

SMILES | EC50 [1, 7] | EC50 ([2]; NCI-H460, 72 h, H460 cells, 72 h) | Resistance Folds [1] | EC50 ([1]; 72 h, H460TaxR cells) | EC50 ([1]; H460TaxR cells) | EC50 ([2]; NCI-H460, H460 cells) | EC50 [3] | tumor growth inhibition, TGI [4] | tumor growth inhibition, TGI [5] | histopathological examination of the major organs [6]
CC(=O)O[C@H]1C(=O)[C@@]2(C)[C@H]([C@H](OC(=O)c3ccccc3)[C@]3(O)C[C@H](OC(=O)[C@H](O)[C@@H](NC(=O)c4ccccc4)c4ccccc4)C(C)=C1C3(C)C)[C@]1(OC(C)=O)CO[C@@H]1C[C@@H]2O [PTX, paclitaxel] | 0.0044 ± 0.0028 µM | – | 165.0 | 0.822 µM | 0.99 ± 0.19 µM | 0.006 ± 0.0021 µM | 0.051 µM | 66.2% | 42.0% | Hepatocyte necrosis
